According to patent US20130065227A1, “METHODS OF INCREASING MACROPINOCYTOSIS IN CANCER CELLS” (priority 2010, published 2013):
{Fluor} = fluorophore: 5-carboxyfluorescein (FAM) or Alexa Fluor 488

Columns and labels:
Cells = test: Antiproliferative MTT assay (FIG. 7); format: cell-based
Description: FIG. 7 are graphs showing the results of comparative experiments. (Panel A) Cells were plated in 96-well plates at low density (1,000 cells per well) and incubated 18 hrs at 37° C. to allow adherence. Cells were treated by addition of different concentrations of AS1411 (obtained from Antisoma), AS1411 (obtained from Invitrogen), tAS1411, FL-AS1411, CRO, or tCRO directly to the medium, and proliferation was measured using a 3-(4,5-dimethylthiazol-2-yl)-2,5-diphenyltetrazolium bromide assay as described previously (Bates et al., 1999, J. Biol. Chem., 274:26369-77). Points represent mean of triplicate samples with SE. (Panel B) 10 μM FL-AS1411 or 10 μM FL-CRO were added to DU145 cells plated on 6-well plates. After incubation at 37° C. for 2 hrs, cells were washed twice with ice-cold PBS and harvested by trypsin treatment. Some cells were washed twice with ice-cold PBS containing dextran sulfate ([…]) or trypan blue ([…], pH 4.4). Cells were resuspended in ice-cold PBS and immediately analyzed by flow cytometry.
Oligodeoxynucleotides were purchased from Invitrogen (Carlsbad, Calif.). […]

MCF10A = test: Stimulation of macropinocytosis (dextran uptake); format: cell-based, human; conditions: MCF10A; Non-cancer, breast epithelial
Description: FIG. 10 are graphs showing the stimulation of macropinocytosis by GROs. Breast carcinoma cells (MDA-MB-231, MCF-7) or non-malignant breast epithelial cells (MCF10A) cells were plated 18 hr before treatment with 10 μM tAS1411 or 10 μM tCRO or water in complete DMEM medium at 37° C. for 48 hr or 72 hr. After treatment, cell medium was changed for fresh complete medium containing 0.2 mg/ml dextran-10K labeled with Alexa Fluor 488 and cells were incubated for 30 min at 37° C. Cells were then incubated on ice with 1 mg/ml PI in PBS, harvested, and analyzed by flow cytometry. Uptake was normalized to no pre-treatment controls and bars show the mean and SE of three independent experiments. […]
AS1411 causes a change in cancer cell morphology that is characterized by vacuolization, irregular nuclei, and swollen cells (Xu et al., 2001, J. Biol. Chem., 276:43221-30). […] To test this idea, DU145 cells were pre-treated for 24 h with tAS1411, then added FL-AS1411 and evaluated uptake after an additional 2 h using flow cytometry. […] This idea is not necessarily inconsistent with the time course data shown in FIG. 1A because the fluorescence signal may decrease over time for a number of reasons, including exocytosis of the ligand and fluorescence quenching due to protein binding or environmental factors (the fluorophore used for flow cytometry is particularly sensitive to acidic environments). […]

SK-N-DZ = test: Cell response to AS1411; format: cell-based; conditions: Cancer, neuroblastoma
Excerpt: (§1) It has recently been discovered that AS1411 can stimulate macropinocytosis (MP) in cancer cells and this finding was verified by several different methods and in multiple cancer cell lines (Table 1).

RWPE1 = test: Cell response to AS1411; format: cell-based; conditions: Non-cancer, prostate epithelial
Excerpt: as §1

Substance	antiproliferative activity (Cells)	Stimulate MP? (MCF10A)	Cells respond? (SK-N-DZ)	Cells respond? (RWPE1)
5′-Fluor-d(TTTCCTCCTCCTCCTTCTCCTCCTCCTCC) (DNA TTTCCTCCTCCTCCTTCTCCTCCTCCTCC; DNA, 5' {Fluor}, backbone and methylation of C not given here) [FL-CRO, reference compound]	no antiproliferative activity	–	–	–
5′-d(GGTGGTGGTGGTTGTGGTGGTGGTGG) [AS1411]	–	No	Yes	No
